Assay results taken from PubChem BioAssay (NCI).
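The compound was tested at five concentrations on cells cultured in 96-well plates, with a 48-hour exposure period. GI50 marks 50% less growth. Definition used: TGI = concentration required for complete inhibition of growth.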

Key:
Test in all cases: NCI anticancer screen, dose series, 48 h
SK-MEL-5 melanoma = tested on: SK-MEL-5 melanoma
SN12C renal = tested on: SN12C renal
SW-620 colon = tested on: SW-620 colon
HOP-62 NSCLC = tested on: HOP-62 NSCLC
ACHN renal = tested on: ACHN renal
EKVX NSCLC = tested on: EKVX NSCLC
RXF 393 renal = tested on: RXF 393 renal
DU-145 prostate = tested on: DU-145 prostate
NCI/ADR-RES ovarian = tested on: NCI/ADR-RES ovarian
PC-3 prostate = tested on: PC-3 prostate

SMILES | TGI (SK-MEL-5 melanoma) [µM] | TGI (SN12C renal) [µM] | TGI (SW-620 colon) [µM] | TGI (HOP-62 NSCLC) [µM] | TGI (ACHN renal) [µM] | TGI (EKVX NSCLC) [µM] | TGI (RXF 393 renal) [µM] | GI50 (RXF 393 renal) [µM] | GI50 (SN12C renal) [µM] | GI50 (SW-620 colon) [µM] | GI50 (HOP-62 NSCLC) [µM] | GI50 (ACHN renal) [µM] | GI50 (EKVX NSCLC) [µM] | GI50 (SK-MEL-5 melanoma) [µM] | GI50 (DU-145 prostate) [µM] | GI50 (NCI/ADR-RES ovarian) [µM] | GI50 (PC-3 prostate) [µM] | TGI (PC-3 prostate) [µM] | TGI (DU-145 prostate) [µM] | TGI (NCI/ADR-RES ovarian) [µM]
CN(C)c1ccc(/C=C/C(=O)C(C)(C)C)cc1Br | 35.5 | 76 | 60.2 | > 100 | > 100 | > 100 |  |  |  |  |  |  |  |  |  |  |  |  |  | 
CC1CCc2c(sc3ncnc(N/N=C/c4ccc(Cl)c(Cl)c4)c23)C1 (centres undefined) | 51.3 | > 100 | > 100 | > 100 | 58 | 89.8 | 70.3 |  |  |  |  |  |  |  |  |  |  |  |  | 
CC(=O)NC1=C(C)C(=O)c2c(nc3n2CCC3O)C1=O (centres undefined) | > 100 | > 100 | > 100 | > 100 | > 100 | 51.4 | 48.3 |  |  |  |  |  |  |  |  |  |  |  |  | 
Cc1cc2c(cc1C)[n+](=O)c(C(=O)/C=C/c1ccc(Cl)cc1)c(C)n2[O-] | 58.7 | > 100 | > 100 | 68.7 | 62 | > 100 |  |  |  |  |  |  |  |  |  |  |  |  |  | 
NC1CCCCC1N.O=C([O-])P(=O)([O-])[O-].[Na+].[Pt+4] (centres undefined) |  | > 100 | > 100 | > 100 | > 100 | > 100 | > 100 | > 100 | > 100 | 28.8 | > 100 | > 100 | > 100 |  |  |  |  |  |  | 
CCN(CC)CC(=O)/C=C/c1ccc(C)cc1 | 33.1 | 33.4 | 30.3 | > 100 | 35.1 |  | 44.2 |  |  |  |  |  |  |  |  |  |  |  |  | 
CC(C)COC(=O)N1N=NC2C3OC(CC3=O)C21 (centres undefined) | > 100 | > 100 | > 100 | > 100 | > 100 | > 100 | > 100 |  |  |  |  |  |  |  |  |  |  |  |  | 
CCOC(=O)c1cc2c(n1Cc1cc(OC)cc(OC)c1)-c1oncc1CCC2 | 6.22 | > 100 | > 100 | > 100 | > 100 |  | > 100 | 0.0987 | 0.252 | 0.0784 | 0.242 | 0.0674 |  | 0.0528 | 0.116 | 0.0603 | 0.0644 | > 100 |  | 
Cc1ccccc1S(=O)(=O)N1[C@H](c2ccc(Cl)cc2)C(C(=O)N[C@@H](Cc2ccccc2)C(N)=O)=C[C@@H]1C(C)(C)C | 13.5 | 13.3 | 19.8 | 15.1 | 9.83 |  | 11.9 | 5.01 | 6.08 | 7.76 | 7.75 | 2.95 |  | 6.8 | 8.26 | 6.69 | 2.39 | 12.2 | 20.4 | 21
O=C1CCC2CCc3cccc4oc1c2c34 (centres undefined) | > 100 | > 100 | > 100 | > 100 | > 100 | > 100 | > 100 |  |  |  |  |  |  |  |  |  |  |  |  | 
CCNc1c(C(=O)N(CC)CC)c(=O)[nH]c2ncccc12 | > 100 | > 100 | > 100 | > 100 | > 100 | > 100 | > 100 |  |  |  |  |  |  |  |  |  |  |  |  | 
CS(=O)(=O)OCCN1CCN(C(=O)c2cccc3c(Nc4ccc(S(N)(=O)=O)cc4)c4ccccc4nc23)CC1 | > 100 | > 100 | > 55.8 | > 100 | > 100 | > 100 | > 100 |  |  |  |  |  |  |  |  |  |  |  |  | 
CC1=C(C)CC2(SC1)C(=O)c1ccccc1C2=O | > 100 | > 100 | > 100 | > 100 | > 100 |  | > 100 |  |  |  |  |  |  |  |  |  |  |  |  | 
O=C(O)CNS(=O)(=O)c1ccc(NC(=O)c2ccc(F)cc2)cc1 | > 100 | > 100 | > 100 |  | > 100 | > 100 | > 100 |  |  |  |  |  |  |  |  |  |  |  |  | 
CSc1ccc(-c2cc(-c3ccc(NC(=O)CCCN4CCCC4)cc3)nc(-c3ccc(NC(=O)CCCN4CCCC4)cc3)c2)cc1 | 10.7 | 17.1 | 3.29 | 3.5 | 13.9 |  | 5.93 | 2.23 | 3.46 | 1.79 | 1.7 | 3.65 |  | 2.74 | 4.1 | 12.4 | 1.8 | 3.4 | 13.3 | 31.3
N=S(=O)(c1ccccc1)c1ccccc1[N+](=O)[O-] (centres undefined) | > 100 | > 100 | > 100 | > 100 | > 100 | > 100 | > 100 |  |  |  |  |  |  |  |  |  |  |  |  | 
O=C1O[C@H](C(Cl)(Cl)Cl)N2CCCC12 (some centres undefined) | > 100 | > 100 | > 100 | > 100 | > 100 | > 100 | > 100 |  |  |  |  |  |  |  |  |  |  |  |  | 
O=c1[nH]c(-c2ccccc2)nc2ccc(Cl)cc12 |  | > 100 | > 100 |  | > 100 | > 100 | > 100 |  |  |  |  |  |  |  |  |  |  |  |  | 
CCOP(=O)(OCC)/C(=C\N1C(=O)CC(=O)NC1=S)C(=O)OC | > 100 | > 100 | > 100 | > 100 | > 100 | > 100 | > 100 |  |  |  |  |  |  |  |  |  |  |  | > 100 | > 100
N#Cc1c2ccccc2c2n1-c1ccccc1OC(c1ccccc1)C2=O (centres undefined) | 3.87 | 14.9 | 16.7 | 15.8 | > 100 |  | 9.55 | 3.15 | 3.48 | 3.9 | 3.84 | 3.73 |  | 1.86 | 6.1 | 3.2 | 2.77 | 13.5 | 26.3 | 12
O=C(Nc1c(Cl)cc([N+](=O)[O-])cc1Cl)C(=O)C1C(=O)NC(=S)NC1=O | > 100 | > 100 | > 100 | > 100 | > 100 | > 100 | > 100 |  |  |  |  |  |  |  |  |  |  | > 100 |  | > 100
CS(=O)(=O)N(CCC#N)c1ccc(/C=N/NC(=O)CC(=O)Nc2cccc(Cl)c2)cc1 | > 100 | > 100 | > 100 | > 100 | > 100 | > 100 | > 100 |  |  |  |  |  |  |  |  |  |  |  |  | 
COc1cccc2c1C1(O)C2CCCC12OCCCO2 (centres undefined) | > 100 | > 100 | > 100 | > 100 | > 100 |  | > 100 |  |  |  |  |  |  |  |  |  |  |  |  | 
